Calls of active or inactive are those of the source.
How the values were obtained:
[1] = target: T1, Histone-lysine N-methyltransferase NSD2 (Homo sapiens, UniProt O96028); type: biochemical
T1 sequence (O96028 whole entry): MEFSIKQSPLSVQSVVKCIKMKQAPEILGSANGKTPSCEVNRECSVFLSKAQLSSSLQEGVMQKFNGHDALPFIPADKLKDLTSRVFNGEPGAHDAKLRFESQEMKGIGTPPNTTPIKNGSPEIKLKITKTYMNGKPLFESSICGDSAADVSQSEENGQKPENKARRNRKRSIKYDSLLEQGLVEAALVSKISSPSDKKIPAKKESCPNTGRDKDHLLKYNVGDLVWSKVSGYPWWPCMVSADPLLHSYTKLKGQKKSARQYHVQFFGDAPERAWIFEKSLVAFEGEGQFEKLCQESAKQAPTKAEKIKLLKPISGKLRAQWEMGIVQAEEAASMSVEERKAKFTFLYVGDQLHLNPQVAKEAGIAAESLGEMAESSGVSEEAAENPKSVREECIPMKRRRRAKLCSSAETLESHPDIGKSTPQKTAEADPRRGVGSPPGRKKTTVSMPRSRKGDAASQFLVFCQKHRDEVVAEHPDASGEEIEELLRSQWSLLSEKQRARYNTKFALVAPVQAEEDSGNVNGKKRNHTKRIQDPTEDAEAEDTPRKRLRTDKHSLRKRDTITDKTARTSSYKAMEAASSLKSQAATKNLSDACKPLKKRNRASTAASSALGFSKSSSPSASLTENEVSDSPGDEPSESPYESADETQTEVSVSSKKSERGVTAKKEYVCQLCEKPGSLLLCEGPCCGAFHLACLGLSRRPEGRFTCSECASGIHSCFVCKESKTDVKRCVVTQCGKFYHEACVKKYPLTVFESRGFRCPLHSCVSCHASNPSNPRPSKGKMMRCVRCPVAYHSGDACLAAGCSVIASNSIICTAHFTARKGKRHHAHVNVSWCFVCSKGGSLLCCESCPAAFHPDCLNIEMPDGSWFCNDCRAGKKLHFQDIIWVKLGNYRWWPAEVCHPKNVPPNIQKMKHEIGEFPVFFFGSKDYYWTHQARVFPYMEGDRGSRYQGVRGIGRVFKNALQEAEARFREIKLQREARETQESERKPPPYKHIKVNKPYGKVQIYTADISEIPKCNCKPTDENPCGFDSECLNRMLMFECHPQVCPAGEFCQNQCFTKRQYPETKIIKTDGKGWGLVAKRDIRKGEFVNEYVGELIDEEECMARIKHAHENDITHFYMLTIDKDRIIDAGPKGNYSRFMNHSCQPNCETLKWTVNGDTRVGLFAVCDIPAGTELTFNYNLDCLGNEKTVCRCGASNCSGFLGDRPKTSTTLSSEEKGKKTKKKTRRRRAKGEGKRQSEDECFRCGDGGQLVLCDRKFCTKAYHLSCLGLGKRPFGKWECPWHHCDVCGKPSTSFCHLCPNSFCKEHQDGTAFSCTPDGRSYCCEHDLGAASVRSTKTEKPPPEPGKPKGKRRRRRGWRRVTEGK

[2] = target: T2, Caspase-6 (Homo sapiens, UniProt P55212); assay: inhibition of CASP6 peptide cleavage – biochemical, VEID-R110 fluorescence, cherry-pick, dose response (AID 720632)
T2 sequence (P55212 whole entry): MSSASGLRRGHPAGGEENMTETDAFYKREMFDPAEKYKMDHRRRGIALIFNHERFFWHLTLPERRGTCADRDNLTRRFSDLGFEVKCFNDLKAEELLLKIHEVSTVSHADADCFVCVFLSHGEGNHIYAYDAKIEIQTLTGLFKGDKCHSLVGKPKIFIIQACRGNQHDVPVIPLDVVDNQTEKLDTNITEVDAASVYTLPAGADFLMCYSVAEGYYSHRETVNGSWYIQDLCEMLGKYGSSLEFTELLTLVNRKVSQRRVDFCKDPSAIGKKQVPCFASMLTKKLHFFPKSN

[3] = target: T3, Tyrosyl-DNA phosphodiesterase 2 (Homo sapiens, UniProt O95551); assay: potency against TDP2 phosphodiesterase activity – biochemical, epi absorbance, IC50, dose response (AID 743297)
T3 sequence (O95551 whole entry): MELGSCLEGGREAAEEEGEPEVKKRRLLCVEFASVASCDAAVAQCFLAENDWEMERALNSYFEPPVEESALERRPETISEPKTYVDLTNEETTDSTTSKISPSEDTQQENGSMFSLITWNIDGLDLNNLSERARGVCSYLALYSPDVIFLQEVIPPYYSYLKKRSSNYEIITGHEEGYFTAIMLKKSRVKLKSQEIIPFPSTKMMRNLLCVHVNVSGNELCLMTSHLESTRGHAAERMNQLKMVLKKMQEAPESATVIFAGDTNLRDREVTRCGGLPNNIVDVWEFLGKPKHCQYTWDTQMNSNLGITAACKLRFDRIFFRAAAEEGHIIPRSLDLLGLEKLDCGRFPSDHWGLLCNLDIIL

[4] = reduced cellular PGC1a acetyl-lysine signal – cell-based, cherry-picked samples, dose response (AID 720514); type: functional;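 further: potency may reflect raised or lowered acetylation signal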
[5] = HEK-293T cell viability reduction – luminescence, B-cell screen hits, cytotoxicity control for BCR NF-kB inhibitor project, dose response (AID 489021); type: functional, cell-based;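 further: HEK-293T cells carrying an NF-kB luciferase reporter; cells exposed to compound for about 14 hours before viability readout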
[6] = test system: H9c2; assay: cells; type: functional, cell-based; conditions: Rattus norvegicus, H9c2, Myocardium;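 further: confirmatory concentration-response retest of ultra-high-throughput screening hits for modulation of myocardial damage; cell death induced by hydrogen peroxide oxidative stress; compound pretreatment for 60 min then peroxide exposure for 2 h; potency is for protecting the cells against peroxide damage rather than for killing them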
[7] = Dd2 parasite growth inhibition in erythrocytes – SYBR Green, dry powder samples, set 9, dose response (AID 1159568); type: functional, cell-based
[8] = target: Protein-tyrosine kinase 2-beta (Homo sapiens, UniProt Q14289);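 further: potency of inhibitors of PYK2 kinase phosphorylation of poly-GT substrate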
[9] = cells
[10] = target: T4, Polyadenylate-binding protein 1 (Homo sapiens, UniProt P11940); assay: MLLE domain peptide-binding blockers, IC50 – biochemical, fluorescence polarization, FITC-PAM2 peptide, dose response (AID 602259); type: functional; conditions: read-out: IC50_Mean
[11] = target: Major prion protein (Homo sapiens, UniProt P04156); type: functional, cell-based
[12] = target: T4, Polyadenylate-binding protein 1; assay: MLLE binding blockers, Cy5 peptide tracer – biochemical, fluorescence polarization, Cy5-PAM2 peptide, secondary, miRNA deadenylation inhibitor project, dose response (AID 602260); type: functional; conditions: read-out: IC50_Mean
[13] = blockade of melanocortin 4 receptor signaling – cell-based, plate reader, cherry pick, counter-screen for LGR2 antagonist project, dose response (AID 743444); type: functional;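 further: transfected HEK 293 cells stimulated with alpha-MSH peptide; potency of inhibitors of the alpha-MSH evoked signal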
[14] = blockers of bursicon-stimulated LGR2 cAMP reporter – cell-based, HEK293, CRE-luciferase reporter, cherry pick, set 2, dose response (AID 743343); type: functional;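 further: transfected cells were stimulated with diluted bursicon conditioned medium after compound addition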
[15] = target: Cytochrome P450 3A4 (Homo sapiens, UniProt P08684); conditions: Potency;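 further: confirmatory qHTS run detecting inhibitors and substrates of CYP3A4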
[16] = target: Paired box protein Pax-8 (Homo sapiens, UniProt Q06710); assay: PAX8 transcriptional activity inhibition in RMG-I – RMG-I cells, luciferase, cherry-pick, dose response (AID 687027); type: functional, cell-based;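 further: luciferase reporter driven by Pax8 target thyroperoxidase promoter measured by SteadyGlo luminescence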
[17] = IGROV1 cell killing – plate reader, dry powder samples, PAX8 inhibitor project, dose response (AID 743043); type: functional, cell-based; conditions: IGROV-1
[18] = OVCAR-3 cell viability loss – plate reader, dry powder samples, PAX8 inhibitor project, dose response (AID 743044); type: functional, cell-based
[19] = OVCAR8 cell viability loss – plate reader, dry powder samples, PAX8 project, dose response (AID 743197); type: functional, cell-based; conditions: OVCAR-8
[20] = target: T5, Zinc finger protein mex-5 (Caenorhabditis elegans, UniProt Q9XUB2); assay: potency of MEX-5 RNA-binding blockers – biochemical, C. elegans, fluorescence polarization, dose response (AID 1960)
T5 sequence (Q9XUB2 whole entry): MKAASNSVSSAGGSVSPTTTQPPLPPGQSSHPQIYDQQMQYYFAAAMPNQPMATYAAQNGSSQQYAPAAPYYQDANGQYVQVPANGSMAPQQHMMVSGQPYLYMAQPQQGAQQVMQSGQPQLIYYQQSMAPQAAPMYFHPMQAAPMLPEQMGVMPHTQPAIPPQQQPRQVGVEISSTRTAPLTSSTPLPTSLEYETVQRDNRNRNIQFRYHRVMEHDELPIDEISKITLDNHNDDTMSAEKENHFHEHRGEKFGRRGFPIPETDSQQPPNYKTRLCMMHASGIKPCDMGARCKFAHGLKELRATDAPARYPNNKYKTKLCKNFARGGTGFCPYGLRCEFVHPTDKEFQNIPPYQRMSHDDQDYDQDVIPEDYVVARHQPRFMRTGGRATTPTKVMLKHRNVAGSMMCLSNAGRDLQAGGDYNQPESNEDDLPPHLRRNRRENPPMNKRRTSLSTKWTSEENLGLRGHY

[21] = target: Large T antigen (Simian virus 40, UniProt P03070); type: functional, Betapolyomavirus macacae;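 further: Confirmatory-stage PubChem screen for compounds that inhibit SV40 T antigen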
[22] = target: T6, RNA-binding protein pos-1 (Caenorhabditis elegans, UniProt G5EF15); assay: disruptors of C. elegans POS-1 RNA interaction – biochemical, fluorescence polarization, dose response (AID 1964);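 further: purified POS-1 fused to maltose binding protein made in E. coli; potency of compounds blocking POS-1 binding to fluorescent RNA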
T6 sequence (G5EF15 whole entry): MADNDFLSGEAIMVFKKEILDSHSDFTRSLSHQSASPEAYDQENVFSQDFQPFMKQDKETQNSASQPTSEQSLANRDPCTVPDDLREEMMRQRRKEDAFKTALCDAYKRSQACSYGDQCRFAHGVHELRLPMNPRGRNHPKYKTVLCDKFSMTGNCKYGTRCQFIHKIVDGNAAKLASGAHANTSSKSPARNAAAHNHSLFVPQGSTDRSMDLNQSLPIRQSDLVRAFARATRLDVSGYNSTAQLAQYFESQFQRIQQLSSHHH

[23] = NIH-3T3 fibroblast cytotoxicity, dose response, cytotoxicity control, cell-based, fluorescence, Alamar Blue, secondary assay (AID 2327); type: functional;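 further: NIH-3T3 mouse fibroblasts cultured with fluconazole at 8 µg/mL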
[24] = fluconazole-exposed Candida albicans growth modulators – fluorescence, retest, confirmation (AID 2467); type: functional, cell-based

O=C1NC(=S)NC(=O)C1=NNc1cc(S(=O)(=O)Nc2ccc(Cl)cc2)ccc1Cl
AC50 [1]: > 20 µM (inactive)

O=C(Nc1c(-c2ccc3c(c2)OCO3)[nH][nH]c1=O)c1ccccc1
AC50 [2]: 47.5 µM (active) | IC50 [3]: 9.43 µM (active)

COc1ccc(C(=O)Nc2cccc(NC(=O)c3ccc(OC)c(OC)c3)n2)cc1OC
AC50 [4]: 7.99 µM (active) | IC50 [5]: > 80 µM (inactive) | IC50 [6]: > 79 µM (inactive)

N#C[C@@H]1[C@H](c2ccccc2C2=CCCC2)[C@H](CO)N1C(=O)C1CCOCC1
AC50 [7]: > 39 µM (inactive)

Cc1nnc(NC(=O)CSc2nc(C(C)C)nc3ccccc23)s1
IC50 [8]: > 69.5 µM (not active) | IC50 [9]: > 138 µM (inactive) | IC50 [10]: > 66 µM (inactive) | IC50 [11]: 1.83 µM (active) | IC50 [12]: > 66 µM (inactive)

Cc1cc(SC(C)C(=O)O)nc2ccccc12 (stereo not given)
IC50 [9]: > 138 µM (inactive) | IC50 [11]: 8.85 µM (active)

CCOc1ccc2nc(NCCNC(=O)Nc3ccccc3)c(C#N)cc2c1
AC50 [4]: 19.5 µM (active)

COc1ccc(/C=C/C(=O)Nc2ccccc2C(=O)O)cc1OC
AC50 [13]: 0.594 µM (active) | AC50 [14]: 0.587 µM (active) | AC50 [15]: 10 µM (inconclusive)

C[C@H]1CCCCO[C@@H](CN(C)Cc2ccc(C(F)(F)F)cc2)[C@@H](C)CN([C@@H](C)CO)C(=O)c2cc(NS(=O)(=O)c3ccc(F)cc3)ccc2O1
AC50 [16]: 6.82 µM (active) | AC50 [17]: 39.4 µM (active) | AC50 [18]: 34.2 µM (active) | AC50 [19]: 51.3 µM (active)

CCOc1cc(/C=C2\C(=O)NN(c3ccccc3)C2=O)cc([N+](=O)[O-])c1O
EC50 [20]: 36.2 µM (active) | IC50 [21]: > 100 µM (active) | EC50 [22]: 129 µM (active) | AC50 [2]: 36.8 µM (active) | AC50 [1]: > 20 µM (inactive) | EC50 [23]: > 160 µM (inactive) | EC50 [24]: > 38 µM (not active)

COc1ccccc1NC(=O)N1CCCCN2[C@@H](CO)[C@@H](c3ccc(C#Cc4ccccc4)cc3)[C@@H]2C1
AC50 [16]: 4.9 µM (active) | AC50 [17]: 39 µM (active) | AC50 [18]: 19.3 µM (active) | AC50 [19]: 35 µM (active)

C[C@@H]1CCCCO[C@H](CN(C)S(=O)(=O)c2ccc(F)cc2)[C@@H](C)CN([C@@H](C)CO)C(=O)c2cc(N(C)C)ccc2O1
AC50 [7]: 2.17 µM (active)

C[C@@H]1CCCCO[C@@H](CN(C)C(=O)Nc2cccc3ccccc23)[C@H](C)CN([C@@H](C)CO)C(=O)c2cc(NC(=O)CCC(F)(F)F)ccc2O1
AC50 [7]: 6.54 µM (active)

— ChEMBL document CHEMBL1201862, “PubChem BioAssay data set” (2004)
